Experimental data from US5242938A, “Derivatives of virginiamycin M1” (Merck & Co., Inc., priority 1992, dated 1993).
pIC50: −log10 of the molar value. Converted amounts (≈) assume the structure as drawn. Like-named read-outs stand apart in the source and are kept apart here.

Experiments:
[1] = target: T1, CCK-B (guinea pig cortex) (Cavia porcellus, UniProt H0VZC5); assay: [125I]BHCCK-8 radioligand binding, guinea pig cortical preparation; details: read-out: CCK binding inhibition - IC50, [125I]BHCCK
T1 construct: guinea pig cortical preparations; from tissue; host or cells: guinea pig brain cortex membranes
T1 sequence (H0VZC5 1-426): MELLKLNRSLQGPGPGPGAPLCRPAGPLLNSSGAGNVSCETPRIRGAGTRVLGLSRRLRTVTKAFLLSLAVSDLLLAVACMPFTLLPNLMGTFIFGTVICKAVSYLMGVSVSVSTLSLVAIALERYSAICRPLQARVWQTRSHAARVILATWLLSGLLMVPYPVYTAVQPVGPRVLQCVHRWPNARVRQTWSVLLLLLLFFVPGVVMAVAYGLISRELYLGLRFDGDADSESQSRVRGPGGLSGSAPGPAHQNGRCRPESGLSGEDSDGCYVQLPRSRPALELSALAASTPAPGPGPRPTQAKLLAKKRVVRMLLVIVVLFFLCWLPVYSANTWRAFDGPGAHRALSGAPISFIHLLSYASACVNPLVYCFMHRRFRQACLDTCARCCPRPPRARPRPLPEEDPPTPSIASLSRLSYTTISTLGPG
Description: (§1) The resulting supernatant was re-spun at 20,000×g for 20 minutes. […] Incubations were for 40 minutes at 4° C. and were terminated by filtration and washing with ice cold 100 mM saline. […] Incubations were for 30 minutes at room temperature and were terminated by filtration over GF/C filters and washing with 100 mM NaCl.

[2] = target: T1, CCK-B (guinea pig cortex); assay: [3H]L-365,260 CCK-B selective antagonist ligand binding, brain membranes; details: for pIC50: read-out: CCK binding inhibition - IC50, [3H]L-365,260
Description: as §1

CCK-A (rat pancreas) [3] = target: T2, CCK-A (rat pancreas) (Rattus norvegicus, UniProt P30551); assay: [125I]BHCCK-8 radioligand binding, rat pancreatic preparation; details: read-out: CCK binding inhibition - IC50, [125I]BHCCK
T2 construct: from tissue; host or cells: rat pancreas
T2 sequence (P30551 1-444): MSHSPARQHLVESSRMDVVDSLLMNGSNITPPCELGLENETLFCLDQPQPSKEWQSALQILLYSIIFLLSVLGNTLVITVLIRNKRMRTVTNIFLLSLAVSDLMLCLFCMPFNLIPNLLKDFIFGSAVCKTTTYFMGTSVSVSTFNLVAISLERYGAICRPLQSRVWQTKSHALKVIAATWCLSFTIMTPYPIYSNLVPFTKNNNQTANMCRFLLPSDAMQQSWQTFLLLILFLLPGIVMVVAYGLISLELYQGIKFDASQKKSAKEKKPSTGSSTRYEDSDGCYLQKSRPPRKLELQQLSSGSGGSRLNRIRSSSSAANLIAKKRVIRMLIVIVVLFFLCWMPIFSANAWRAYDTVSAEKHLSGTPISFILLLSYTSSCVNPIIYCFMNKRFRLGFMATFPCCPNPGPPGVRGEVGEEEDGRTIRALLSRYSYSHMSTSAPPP
Description: as §1

CCK-A (rat pancreas) [4] = target: T2, CCK-A (rat pancreas); assay: [3H]L-364,718 CCK-A selective antagonist ligand binding, pancreas; details: read-out: CCK binding inhibition - IC50, [3H]L-364,718
Description: as §1

Bacillus sp. (Mb 633) = assay: Agar diffusion disc assay, Baci 633; format: cell-based; details: @ 20 g/disc; for zone of inhibition at 20 µg/disc: Bacillus, 18 h, read-out: Inhibition zone diameter, Baci 633
Description: (§2) Cultures employed in evaluating antimicrobial activity included plant pathogens, human and animal opportunistic pathogens and selected laboratory strains having specific-antibiotic sensitivities or chromosomal or R-plasmid-mediated resistances. […] The agar diffusion MIC's were determined using the method described by Barry in Anitbiotics in Laboratory Medicine, 2nd Ed., Ed. V. Lorian, pp. 1-63, William & Wilkins, Baltimore, 1986. Each test compound was dissolved in methanol to a concentration of 1 mg/ml. Serial dilutions of these compounds were also made to determine an agar diffusion MIC. 20 μl of each dilution was pipetted on to 6 mm paper discs, air dried and placed onto the surface of an agar plate seeded with the appropriate bacteria (~10^6 cfu). Seeded agar plates were incubated overnight (~18 hours) at 25° C. Zone sizes were measured to the nearest mm. Each compound was tested in triplicate and the results shown represent the mean.

[5] = system: Staphylococcus aureus (Mb 108, ATCC 6538P); assay: Agar diffusion disc assay, Sta 108; format: cell-based; details: Staphylococcus aureus, ATCC6538P, 18 h
Description: as §2

[6] = system: Bacillus subtilis (Mb 964, ATCC 6633); assay: Agar diffusion disc assay, Subt 964; format: cell-based; details: Bacillus subtilis, ATCC6633, 18 h, read-out: Inhibition zone diameter, Subt 964
Description: as §2

[7] = system: Micrococcus luteus (Mb 1101, ATCC 9341); assay: Agar diffusion disc assay, Micr 1101; format: cell-based; details: for MIC: read-out: Agar Diffusion MIC versus Micrococcus luteus; for zone of inhibition at 10 µg/disc: 10.0 μg/disc
Description: as §2

[8] = system: Staphylococcus aureus (Mb 2983); assay: Agar diffusion disc assay, Sta 2983; format: cell-based; details: Staphylococcus aureus, 18 h
Description: as §2

[9] = system: Corynebacterium pseudodiphtheriticum (Mb 261, ATCC 9742); assay: Agar diffusion disc assay, Cory 261; format: cell-based; details: Corynebacterium pseudodiphtheriticum, ATCC9742, 18 h
Description: as §2

[10] = system: Streptococcus faecium (Mb 2820); assay: Agar diffusion disc assay, Str 2820; format: cell-based; details: Enterococcus faecium, 18 h
Description: as §2

[11] = system: Streptococcus agalactiae (Mb 2875); assay: Agar diffusion disc assay, Str 2875; format: cell-based; details: Streptococcus agalactiae, 18 h
Description: as §2

[12] = system: Salmonella gallinarum (Mb 1287); assay: Agar diffusion disc assay, Salm 1287; format: cell-based; details: Salmonella enterica, GALLINARUM, 18 h, read-out: Inhibition zone diameter, Salm 1287
Description: as §2

[13] = system: Escherichia coli (Mb 1418); assay: Agar diffusion disc assay, Coli 1418; format: cell-based; details: @ 20 g/disc; for zone of inhibition at 20 µg/disc: Escherichia coli, 18 h, read-out: Inhibition zone diameter, Coli 1418
Description: as §2

[14] = system: Pseudomonas stutzeri (Mb 1231, ATCC 11607); assay: Agar diffusion disc assay, Pseu 1231; format: cell-based; details: @ 20 g/disc; for zone of inhibition at 20 µg/disc: Stutzerimonas stutzeri, ATCC11607, 18 h, read-out: Inhibition zone diameter, Pseu 1231
Description: as §2

[15] = system: En terobacter aergenes (Mb 835); assay: Agar diffusion disc assay, Ent 835; format: cell-based; details: 18 h, read-out: Inhibition zone diameter, Ent 835
Description: as §2

[16] = @ 20 g/disc, read-out: Inhibition zone diameter, Sta 108
[17] = Micrococcus luteus, ATCC9341, 18 h, @ 20 g/disc, read-out: Inhibition zone diameter, Micr 1101
[18] = Micrococcus luteus, ATCC9341, 18 h
[19] = Micrococcus luteus, ATCC9341, 5.00 μg/disc, 25° C., ~18 hours, read-out: Mean of triplicate zone size versus Micrococcus luteus
[20] = Micrococcus luteus, ATCC9341, 25° C., ~18 hours, read-out: Mean of triplicate zone size versus Micrococcus luteus
[21] = Micrococcus luteus, ATCC9341, 20.0 μg/disc, 25° C., ~18 hours, read-out: Mean of triplicate zone size versus Micrococcus luteus
[22] = @ 20 g/disc, read-out: Inhibition zone diameter, Sta 2983
[23] = @ 20 g/disc, read-out: Inhibition zone diameter, Cory 261
[24] = @ 20 g/disc, read-out: Inhibition zone diameter, Str 2820
[25] = @ 20 g/disc, read-out: Inhibition zone diameter, Str 2875

Structure (SMILES) | pIC50 [1] | A.R. = agonist ratio = IC50([3H]L365,260)/IC50([125I]CCK) [2] | pIC50 [2] | pIC50 (CCK-A (rat pancreas) [3]) | pIC50 (CCK-A (rat pancreas) [4]) | zone of inhibition at 20 µg/disc (Bacillus sp. (Mb 633)) [mm] | zone of inhibition at 20 µg/disc [5, 16] [mm] | zone of inhibition at 20 µg/disc ([6]; @ 20 g/disc) [mm] | zone of inhibition at 20 µg/disc [7, 17] [mm] | MIC [7, 18] [µM] | zone of inhibition at 5 µg/disc [7, 19] [mm] | zone of inhibition at 10 µg/disc [7, 20] [mm] | zone of inhibition at 20 µg/disc [7, 21] [mm] | zone of inhibition at 20 µg/disc [8, 22] [mm] | zone of inhibition at 20 µg/disc [9, 23] [mm] | zone of inhibition at 20 µg/disc [10, 24] [mm] | zone of inhibition at 20 µg/disc [11, 25] [mm] | zone of inhibition at 20 µg/disc ([12]; @ 20 g/disc) [mm] | zone of inhibition at 20 µg/disc [13] [mm] | zone of inhibition at 20 µg/disc [14] [mm] | other results
CC1=C\[C@@H](O)CC(O)Cc2nc(co2)C(=O)N2CCC=C2C(=O)O[C@H](C(C)C)[C@H](C)/C=C/C(=O)NC\C=C\1 (single isomer, unassigned) [Example 14A] | 5.68 | 0.1 | 6.85 | < 5.52 | < 5.52 | – | – | – | – | – | – | – | – | – | – | – | – | – | – | – | Inhibition zone diameter, Baci 633 (Bacillus sp. (Mb 633)): 9 mm; zone of inhibition at 20 µg/disc ([5]; read-out: Inhibition zone diameter, Sta 108, @ 20 g/disc): 27 mm; zone of inhibition at 20 µg/disc [6]: 0 mm; zone of inhibition at 20 µg/disc ([7]; Micrococcus luteus, ATCC9341, 18 h, read-out: Inhibition zone diameter, Micr 1101, @ 20 g/disc): 35 mm; zone of inhibition at 1.25 µg/disc ([7]; Micrococcus luteus, ATCC9341, 18 h, read-out: Mean of triplicate zone size versus Micrococcus luteus, 1.25 μg/disc, 25° C., ~18 hours): 25 mm; zone of inhibition at 2.5 µg/disc ([7]; Micrococcus luteus, ATCC9341, 18 h, read-out: Mean of triplicate zone size versus Micrococcus luteus, 2.50 μg/disc, 25° C., ~18 hours): 27 mm; zone of inhibition at 5 µg/disc ([7]; Micrococcus luteus, ATCC9341, 18 h, read-out: Mean of triplicate zone size versus Micrococcus luteus, 5.00 μg/disc, 25° C., ~18 hours): 29 mm; zone of inhibition at 20 µg/disc ([7]; Micrococcus luteus, ATCC9341, 18 h, read-out: Mean of triplicate zone size versus Micrococcus luteus, 20.0 μg/disc, 25° C., ~18 hours): 33 mm; MIC [7]: 0.08 µM (≈ 0.0422 µg/mL); zone of inhibition at 20 µg/disc ([8]; read-out: Inhibition zone diameter, Sta 2983, @ 20 g/disc): 22 mm; zone of inhibition at 20 µg/disc ([9]; read-out: Inhibition zone diameter, Cory 261, @ 20 g/disc): 30 mm; zone of inhibition at 20 µg/disc ([10]; read-out: Inhibition zone diameter, Str 2820, @ 20 g/disc): 16 mm; zone of inhibition at 20 µg/disc ([11]; read-out: Inhibition zone diameter, Str 2875, @ 20 g/disc): 30 mm; zone of inhibition at 20 µg/disc [12]: 0 mm; Inhibition zone diameter, Coli 1418 [13]: 8 mm; Inhibition zone diameter, Pseu 1231 [14]: 15 mm; zone of inhibition at 20 µg/disc [15]: 0 mm
CNC(=O)O[C@@H]1/C=C(C)/C=C/CNC(=O)/C=C/[C@@H](C)[C@@H](C(C)C)OC(=O)C2=CCCN2C(=O)c2coc(n2)CC(=O)C1 [Example 7] | 6.10 | 19 | < 5.52 | < 5.52 | < 5.52 | 7 | 19 | 0 | 27 | 1.74 (≈ 1.01 µg/mL) | 18 | 22 | 25 | 11 | 22 | 10 | 16 | 0 | 0 | 0 | percentage in parentheses beside >3.0, [3H]L-365,260 (inhibition at top concentration, not defined) ([2]; beside IC50 >3.0): 14%; zone of inhibition at 1.25 µg/disc ([7]; Micrococcus luteus, ATCC9341, 1.25 μg/disc, 25° C., ~18 hours, read-out: Mean of triplicate zone size versus Micrococcus luteus): 8 mm; zone of inhibition at 2.5 µg/disc ([7]; Micrococcus luteus, ATCC9341, 2.50 μg/disc, 25° C., ~18 hours, read-out: Mean of triplicate zone size versus Micrococcus luteus): 13 mm; zone of inhibition at 20 µg/disc ([15]; @ 20 g/disc): 0 mm
CC1=C\[C@@H](OC(=O)Nc2ccc([N+](=O)[O-])cc2)CC(=O)Cc2nc(co2)C(=O)N2CCC=C2C(=O)O[C@H](C(C)C)[C@H](C)/C=C/C(=O)NC\C=C\1 [Example 10] | 5.80 | 8.7 | 4.88 | < 5.52 | < 5.52 | 0 | 9 | 0 | 13 | 3.94 (≈ 2.72 µg/mL) | 7 | 10 | 12 | 0 | 9 | 0 | 0 | 0 | 0 | 0 | zone of inhibition at 20 µg/disc ([15]; @ 20 g/disc): 0 mm
